Test results: ChEMBL document CHEMBL1201862, “PubChem BioAssay data set” (2004)
Calls of active or inactive are those of the source.

Experiments:
[1] = target: T1, Protein RecA (Mycobacterium tuberculosis, UniProt P9WHJ3); experiment: Fluorescence Cell-Free Homogeneous Dose Retest to Identify Inhibitors of RecA-Intein Splicing Activity. [Related pubchem assays (depositor defined):AID2097, AID2223, AID489010, AID492950]; type: functional
T1 sequence (P9WHJ3 whole entry): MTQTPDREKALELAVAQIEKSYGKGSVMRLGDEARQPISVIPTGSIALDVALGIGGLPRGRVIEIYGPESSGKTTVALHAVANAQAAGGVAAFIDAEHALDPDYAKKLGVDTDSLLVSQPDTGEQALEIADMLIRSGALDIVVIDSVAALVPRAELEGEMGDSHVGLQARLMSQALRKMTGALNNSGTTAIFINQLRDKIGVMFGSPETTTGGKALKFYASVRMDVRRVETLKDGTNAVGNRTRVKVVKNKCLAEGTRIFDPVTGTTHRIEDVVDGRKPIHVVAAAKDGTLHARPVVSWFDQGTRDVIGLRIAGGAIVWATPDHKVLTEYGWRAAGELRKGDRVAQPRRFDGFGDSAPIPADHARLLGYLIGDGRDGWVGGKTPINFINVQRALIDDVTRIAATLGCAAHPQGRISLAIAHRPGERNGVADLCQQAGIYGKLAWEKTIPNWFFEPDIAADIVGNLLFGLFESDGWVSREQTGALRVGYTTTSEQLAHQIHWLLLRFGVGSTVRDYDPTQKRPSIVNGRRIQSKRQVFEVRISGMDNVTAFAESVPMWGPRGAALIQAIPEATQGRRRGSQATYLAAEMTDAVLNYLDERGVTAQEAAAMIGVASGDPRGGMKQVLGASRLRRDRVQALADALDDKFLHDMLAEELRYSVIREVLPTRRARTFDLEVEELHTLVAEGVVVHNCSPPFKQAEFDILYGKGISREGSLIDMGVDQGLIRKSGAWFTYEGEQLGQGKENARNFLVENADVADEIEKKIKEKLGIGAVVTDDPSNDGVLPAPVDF

[2] = target: T2, Replicative DNA helicase DnaB (Mycobacterium tuberculosis, UniProt P9WMR3); experiment: DnaB intein splicing inhibitors, dose response, biochemical, cell-free fluorescence (AID 449749); type: functional
T2 sequence (P9WMR3 whole entry): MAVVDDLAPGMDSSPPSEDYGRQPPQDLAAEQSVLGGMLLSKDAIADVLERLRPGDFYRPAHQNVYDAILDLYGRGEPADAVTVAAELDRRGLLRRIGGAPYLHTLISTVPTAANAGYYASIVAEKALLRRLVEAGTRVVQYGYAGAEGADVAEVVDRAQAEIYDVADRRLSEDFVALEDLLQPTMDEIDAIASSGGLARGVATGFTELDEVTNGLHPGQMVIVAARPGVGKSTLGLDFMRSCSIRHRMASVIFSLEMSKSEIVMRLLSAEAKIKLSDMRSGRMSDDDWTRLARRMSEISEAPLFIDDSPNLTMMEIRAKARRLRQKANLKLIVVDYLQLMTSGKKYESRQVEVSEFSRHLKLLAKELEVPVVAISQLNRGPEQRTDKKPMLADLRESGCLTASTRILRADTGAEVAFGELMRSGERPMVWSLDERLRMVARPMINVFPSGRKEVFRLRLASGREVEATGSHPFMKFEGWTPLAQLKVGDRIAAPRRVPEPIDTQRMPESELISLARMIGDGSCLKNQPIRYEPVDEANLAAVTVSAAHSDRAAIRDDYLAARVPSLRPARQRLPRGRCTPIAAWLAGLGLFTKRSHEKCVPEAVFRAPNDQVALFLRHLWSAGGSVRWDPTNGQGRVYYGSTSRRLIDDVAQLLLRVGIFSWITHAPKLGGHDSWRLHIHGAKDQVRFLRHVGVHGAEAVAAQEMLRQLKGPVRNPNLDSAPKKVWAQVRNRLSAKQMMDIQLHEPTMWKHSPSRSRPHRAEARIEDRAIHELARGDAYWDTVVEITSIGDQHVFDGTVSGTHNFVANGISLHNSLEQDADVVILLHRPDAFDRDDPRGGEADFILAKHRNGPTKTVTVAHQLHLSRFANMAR

[3] = THP-1 cell cytotoxicity, dose response, cytotoxicity control for non-replicating M. tuberculosis project (AID 489025); type: functional
[4] = Vero E6 cell cytotoxicity, dose response, cytotoxicity control for non-replicating M. tuberculosis project, secondary assay (AID 492998); type: functional, VeroE6; details: Vero C1008
[5] = cells; type: functional
[6] = HepG2 cell cytotoxicity, dose response, cytotoxicity control for non-replicating M. tuberculosis project (AID 489018); type: functional; details: Mycobacterium tuberculosis
[7] = test system: INS1; experiment: beta cell apoptosis inhibitors, cytokine rescue, dose response, luminescence, retest (AID 449756); type: functional, cell-based; details: Rattus norvegicus;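 further: cell death triggered by IL-1 beta plus TNF-alpha plus IFN-gamma mixture; protective hits raise ATP signal compared with cytokine alone wells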
[8] = test system: HEK293; experiment: cells; type: functional, cell-based; details: Homo sapiens
[9] = test system: HEK293; experiment: cells; type: functional, cell-based; details: Homo sapiens; remark: listed apart in the source
[10] = test system: HEK293; experiment: NOD1 signaling inhibitors, primary screen, cell-based, luminescence, uHTS (AID 1578); type: functional; details: Homo sapiens
[11] = Luminescence Cell-Based Dose Response HTS to Identify Inhibitors of 5'UTR Stem-Loop Driven Prion Protein mRNA Translation in H4 Neuroglioblastoma Cells. [Related pubchem assays: 1827 (Project Summary), 1813 (Primary HTS)]; type: functional
[12] = inhibitors of SNCA 5'UTR-driven reporter translation, confirmation, H4 neuroglioma cells, luminescence (AID 1988); type: functional, cell-based
[13] = inhibitors of firefly luciferase expression or activity, dose response, H4 neuroglioma cells, luminescence (AID 1990); type: functional, cell-based
[14] = test system: HEK293; experiment: NOD2 signaling inhibitors in MDP-stimulated cells, cell-based, uHTS, luminescence (AID 2001); type: functional; details: Homo sapiens
[15] = test system: Vero; experiment: cells; type: functional, cell-based; details: Chlorocebus sabaeus
[16] = target: T3, Tyrosine-protein phosphatase non-receptor type 22 (Homo sapiens, UniProt Q9Y2R2); type: functional
T3 sequence (Q9Y2R2 whole entry): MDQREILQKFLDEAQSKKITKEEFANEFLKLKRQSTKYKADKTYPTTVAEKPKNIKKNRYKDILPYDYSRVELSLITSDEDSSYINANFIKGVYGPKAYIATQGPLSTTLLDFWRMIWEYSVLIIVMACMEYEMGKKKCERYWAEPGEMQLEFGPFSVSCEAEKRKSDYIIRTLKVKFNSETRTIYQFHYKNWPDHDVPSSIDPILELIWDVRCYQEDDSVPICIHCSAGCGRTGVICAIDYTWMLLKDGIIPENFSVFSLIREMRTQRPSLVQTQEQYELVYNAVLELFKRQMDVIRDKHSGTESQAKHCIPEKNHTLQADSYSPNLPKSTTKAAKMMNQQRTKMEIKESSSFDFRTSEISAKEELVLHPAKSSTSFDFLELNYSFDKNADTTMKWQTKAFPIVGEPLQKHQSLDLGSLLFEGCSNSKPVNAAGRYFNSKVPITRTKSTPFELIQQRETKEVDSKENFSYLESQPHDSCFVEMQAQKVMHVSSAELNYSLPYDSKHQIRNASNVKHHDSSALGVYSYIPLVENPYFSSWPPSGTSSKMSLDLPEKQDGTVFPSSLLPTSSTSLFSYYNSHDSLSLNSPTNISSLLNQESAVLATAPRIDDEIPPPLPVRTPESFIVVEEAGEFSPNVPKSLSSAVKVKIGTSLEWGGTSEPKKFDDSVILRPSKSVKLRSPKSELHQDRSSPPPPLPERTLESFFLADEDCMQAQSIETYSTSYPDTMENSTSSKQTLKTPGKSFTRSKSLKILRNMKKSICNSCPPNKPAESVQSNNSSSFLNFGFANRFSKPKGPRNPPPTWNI

[17] = target: T4, Tyrosine-protein phosphatase non-receptor type 7 (Homo sapiens, UniProt P35236); type: functional
T4 sequence (P35236 whole entry): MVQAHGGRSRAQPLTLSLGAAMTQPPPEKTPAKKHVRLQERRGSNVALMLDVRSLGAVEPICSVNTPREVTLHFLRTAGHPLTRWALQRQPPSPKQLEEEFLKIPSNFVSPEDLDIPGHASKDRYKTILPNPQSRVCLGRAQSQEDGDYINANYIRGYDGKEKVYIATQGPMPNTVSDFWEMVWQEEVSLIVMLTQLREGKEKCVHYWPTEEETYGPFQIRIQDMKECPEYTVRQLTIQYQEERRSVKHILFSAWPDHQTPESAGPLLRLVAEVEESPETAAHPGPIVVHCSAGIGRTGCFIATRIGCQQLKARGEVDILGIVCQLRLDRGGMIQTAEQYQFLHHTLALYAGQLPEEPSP

[18] = test system: Vero; experiment: cells; type: functional; details: Chlorocebus sabaeus
[19] = HEp-2 cell cytotoxicity, dose response, cytotoxicity control for RSV inhibitor project, HTS (AID 2410); type: functional; details: human respiratory syncytial virus
[20] = target: T3, Tyrosine-protein phosphatase non-receptor type 22; type: functional; remark: listed apart in the source
[21] = target: Eukaryotic translation initiation factor 4E (Mus musculus, UniProt P63073); experiment: eIF4E–eIF4G protein interaction inhibitors, dose response, biochemical, TR-FRET (AID 855); type: functional;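 further: potency for disrupting eIF4E binding to eIF4GI seen as loss of FRET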
Eukaryotic translation initiation factor 4E, sequence (P63073 whole entry): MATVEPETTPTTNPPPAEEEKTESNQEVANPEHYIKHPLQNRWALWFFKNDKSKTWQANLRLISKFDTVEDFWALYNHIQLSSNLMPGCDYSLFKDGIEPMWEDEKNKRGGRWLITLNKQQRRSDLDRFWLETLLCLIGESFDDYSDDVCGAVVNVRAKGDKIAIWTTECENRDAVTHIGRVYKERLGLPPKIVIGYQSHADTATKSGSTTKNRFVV

[22] = target: T5, Calpain-2 catalytic subunit (Sus scrofa, UniProt P43367); experiment: pig calpain II inhibitor potency, dose response, biochemical, fluorogenic peptide substrate (AID 1420); type: functional
T5 sequence (P43367 whole entry): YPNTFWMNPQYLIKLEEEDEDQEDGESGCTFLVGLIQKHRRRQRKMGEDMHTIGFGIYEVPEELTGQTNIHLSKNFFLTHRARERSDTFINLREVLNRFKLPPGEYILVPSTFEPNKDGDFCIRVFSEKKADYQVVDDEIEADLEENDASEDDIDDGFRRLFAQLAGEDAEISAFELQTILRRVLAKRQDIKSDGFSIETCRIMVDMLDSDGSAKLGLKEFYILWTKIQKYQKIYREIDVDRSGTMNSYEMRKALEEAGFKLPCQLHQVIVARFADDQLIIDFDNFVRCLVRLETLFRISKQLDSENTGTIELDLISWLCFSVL

[23] = target: T6, Alkaline phosphatase, tissue-nonspecific isozyme (Homo sapiens, UniProt P05186); experiment: human TNAP enzyme inhibitors, SAR follow-up, biochemical, luminescent, dose response (AID 1056)
T6 sequence (P05186 whole entry): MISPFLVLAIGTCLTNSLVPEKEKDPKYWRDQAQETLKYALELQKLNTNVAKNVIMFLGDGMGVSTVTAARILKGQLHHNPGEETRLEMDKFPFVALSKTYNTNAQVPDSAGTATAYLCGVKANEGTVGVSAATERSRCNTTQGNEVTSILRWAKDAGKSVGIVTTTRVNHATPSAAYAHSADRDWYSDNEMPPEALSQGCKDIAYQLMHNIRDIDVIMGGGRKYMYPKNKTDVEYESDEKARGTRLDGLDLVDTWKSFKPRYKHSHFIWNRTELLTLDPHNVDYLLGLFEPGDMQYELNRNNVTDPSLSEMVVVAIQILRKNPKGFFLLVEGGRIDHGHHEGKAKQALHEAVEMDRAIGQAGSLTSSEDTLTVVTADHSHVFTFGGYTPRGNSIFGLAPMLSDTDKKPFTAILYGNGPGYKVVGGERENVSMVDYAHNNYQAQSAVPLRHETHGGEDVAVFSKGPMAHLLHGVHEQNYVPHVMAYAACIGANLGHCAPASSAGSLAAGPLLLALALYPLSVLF

[24] = target: Glyceraldehyde-3-phosphate dehydrogenase (Homo sapiens, UniProt P04406)
Glyceraldehyde-3-phosphate dehydrogenase, sequence (P04406 whole entry): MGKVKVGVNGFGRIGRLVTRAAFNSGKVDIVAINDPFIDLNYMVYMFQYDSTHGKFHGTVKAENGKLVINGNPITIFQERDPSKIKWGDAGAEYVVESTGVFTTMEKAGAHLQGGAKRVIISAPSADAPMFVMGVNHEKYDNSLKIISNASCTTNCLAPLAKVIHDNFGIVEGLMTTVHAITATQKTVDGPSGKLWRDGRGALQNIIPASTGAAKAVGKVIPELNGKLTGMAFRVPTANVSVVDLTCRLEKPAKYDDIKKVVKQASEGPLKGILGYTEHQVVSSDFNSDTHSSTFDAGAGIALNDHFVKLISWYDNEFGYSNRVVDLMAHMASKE

Cn1cnc([N+](=O)[O-])c1S(=O)(=O)c1cccc(Cl)c1
EC50 [1]: 15.8 µM (active)
AC50 [2]: 27.7 µM (active)
CC50 [3]: 15.5 µM (active)
CC50 [4]: 8.33 µM (active)
IC50 [5]: 5.88 µM (active)
CC50 [6]: 13 µM (active)

O=C(N/N=C/c1cc(Br)c(Br)s1)c1ccncc1
CC50 [3]: 6.79 µM (active)
AC50 [7]: 3.31 µM (active)
IC50 [8]: 2.13 µM (active)
IC50 [9]: > 20 µM (inactive)
CC50 [4]: 7.99 µM (active)
EC50 [10]: > 20 µM (inactive)
EC50 [11]: 16.8 µM (active)
EC50 [12]: 9.58 µM (active)
IC50 [5]: 2.64 µM (active)
EC50 [13]: > 120 µM (not active)
IC50 [14]: 17.9 µM (inactive)
CC50 [6]: 16.7 µM (active)

CCOc1ccccc1-c1cc(C(=O)N/N=C/c2ccc(O)c(OC)c2)c2ccccc2n1
IC50 [15]: > 25 µM (active)
IC50 [16]: > 79.4 µM (inactive)
IC50 [17]: > 79.4 µM (inactive)
CC50 [18]: > 25 µM (active)
CC50 [19]: 26.7 µM (active)
IC50 [20]: > 79.4 µM (inactive)

Fc1c(F)c(C(F)(F)F)c(F)c(F)c1N1CCN(c2ccc3nnc(C(F)(F)F)n3n2)CC1
IC50 [21]: > 64 µM (inactive)
IC50 [22]: 3.07 µM (not active)

CCCCOc1ccc(-c2cc(C(=O)OC)[nH]n2)cc1
IC50 [23]: 912 nM (active)
IC50 [24]: > 100 µM (not active)

COc1ccccc1N1CCN(C(=O)C2CCN(C(=O)c3ccccc3Cl)CC2)CC1
IC50 [16]: > 79.4 µM (inactive)
IC50 [17]: > 79.4 µM (inactive)
IC50 [20]: > 79.4 µM (inactive)
